Source: PubChem BioAssay AID2060890 (Molecular Pharmacology Branch, DTP, NCI, 2025)

Tested on: LG0703-F948-PDC complex spheroid viability
Test: Anticancer human tumor LG0703-F948-PDC patient-derived lung adenocarcinoma cell line growth inhibition [RAS]
Conditions: for IC50: curve of first compound; for viability, T/C: stronger effect = lower value
Summary of the method: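 Tumour cells grown as complex spheroids with HUVEC endothelial cells and mesenchymal stem cells, treated with RAS pathway inhibitor combinations. Each agent spans half-log steps from near clinical Cmax, or 10 microM where Cmax is unknown.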

[1] = second compound 0.00316 µM, first compound 0.0316 µM
[2] = second compound 0.00316 µM, first compound 0.1 µM
[3] = second compound 0.00316 µM, first compound 0.316 µM
[4] = second compound 0.00316 µM, first compound 1 µM
[5] = second compound 0.00316 µM, first compound 3.16 µM
[6] = second compound 0.00316 µM, first compound 10 µM
[7] = second compound 0.01 µM, first compound 0.0316 µM
[8] = second compound 0.01 µM, first compound 0.1 µM
[9] = second compound 0.01 µM, first compound 0.316 µM
[10] = second compound 0.01 µM, first compound 1 µM
[11] = second compound 0.01 µM, first compound 3.16 µM
[12] = second compound 0.01 µM, first compound 10 µM
[13] = second compound 0.0316 µM, first compound 0.0316 µM
[14] = second compound 0.0316 µM, first compound 0.1 µM
[15] = second compound 0.0316 µM, first compound 0.316 µM
[16] = second compound 0.0316 µM, first compound 1 µM
[17] = second compound 0.0316 µM, first compound 3.16 µM
[18] = second compound 0.0316 µM, first compound 10 µM
[19] = second compound 0.1 µM, first compound 0.0316 µM
[20] = second compound 0.1 µM, first compound 0.1 µM
[21] = second compound 0.1 µM, first compound 0.316 µM
[22] = second compound 0.1 µM, first compound 1 µM
[23] = second compound 0.1 µM, first compound 3.16 µM
[24] = second compound 0.1 µM, first compound 10 µM
[25] = second compound 0.316 µM, first compound 0.0316 µM
[26] = second compound 0.316 µM, first compound 0.1 µM
[27] = second compound 0.316 µM, first compound 0.316 µM
[28] = second compound 0.316 µM, first compound 1 µM
[29] = second compound 0.316 µM, first compound 3.16 µM
[30] = second compound 0.316 µM, first compound 10 µM
[31] = second compound 1 µM, first compound 0.0316 µM
[32] = second compound 1 µM, first compound 0.1 µM
[33] = second compound 1 µM, first compound 0.316 µM
[34] = second compound 1 µM, first compound 1 µM
[35] = second compound 1 µM, first compound 3.16 µM
[36] = second compound 1 µM, first compound 10 µM
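Further: spheroids exposed to agents for 7 days.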
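Wherever viability, T/C is given: 100% = DMSO vehicle wells.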

C[C@@H](NC(=O)c1ncnc(N)c1Cl)c1ncc(C(=O)Nc2cc(C(F)(F)F)c(Cl)cn2)s1 + C=CC(=O)N1CCN(c2nc(OCC3CCCN3C)nc3c(F)c(-c4nc(N)cc(C)c4C(F)(F)F)c(Cl)cc23)C(C)C1 gave an IC50 (second compound 0.00316 µM) greater than 10000 nM, an IC50 (second compound 0.01 µM) greater than 10000 nM and an IC50 (second compound 0.0316 µM) greater than 10000 nM. For the same molecule, the IC50 (second compound 0.1 µM) was greater than 10000 nM, the IC50 (second compound 0.316 µM) was greater than 10000 nM and the IC50 (second compound 1 µM) was greater than 10000 nM. It also gave a viability, T/C [1] of 99.4%, a viability, T/C [2] of 100% and a viability, T/C [3] of 107%. For the same molecule, the viability, T/C [4] was 110%, the viability, T/C [5] was 104% and the viability, T/C [6] was 93%. The viability, T/C [7] was 113%, the viability, T/C [8] was 103% and the viability, T/C [9] was 107%. For the same molecule, the viability, T/C [10] was 111%, the viability, T/C [11] was 109% and the viability, T/C [12] was 97.2%. The viability, T/C [13] was 103%, the viability, T/C [14] was 109% and the viability, T/C [15] was 95.8%. The viability, T/C [16] was 102%, the viability, T/C [17] was 121% and the viability, T/C [18] was 95.2%. For the same molecule, the viability, T/C [19] was 106%, the viability, T/C [20] was 109% and the viability, T/C [21] was 113%. The viability, T/C [22] was 109%, the viability, T/C [23] was 118% and the viability, T/C [24] was 95.2%. The viability, T/C [25] was 118%, the viability, T/C [26] was 105% and the viability, T/C [27] was 108%. It also gave a viability, T/C [28] of 114%, a viability, T/C [29] of 117% and a viability, T/C [30] of 100%. For the same molecule, the viability, T/C [31] was 115%, the viability, T/C [32] was 116% and the viability, T/C [33] was 118%. For the same molecule, the viability, T/C [34] was 132%, the viability, T/C [35] was 129% and the viability, T/C [36] was 98.3%.
Molecule NC1c2ccccc2OC12CCN(c1cnc3c(N4CCCc5ncccc54)n[nH]c3n1)CC2 (stereo unspecified) + C=CC(=O)N1CCN(c2nc(OCC3CCCN3C)nc3c(F)c(-c4nc(N)cc(C)c4C(F)(F)F)c(Cl)cc23)C(C)C1 has an IC50 (second compound 0.00316 µM) of 38.6 nM, an IC50 (second compound 0.01 µM) of 47.8 nM and an IC50 (second compound 0.0316 µM) of 42.8 nM. It also gave an IC50 (second compound 0.1 µM) of 51.7 nM, an IC50 (second compound 0.316 µM) of 59.1 nM and an IC50 (second compound 1 µM) of 41.6 nM. For the same molecule, the viability, T/C [1] was 54.5%, the viability, T/C [2] was 31.4% and the viability, T/C [3] was 16%. The viability, T/C [4] was 10.9%, the viability, T/C [5] was 4.54% and the viability, T/C [6] was 2.7%. For the same molecule, the viability, T/C [7] was 58.3%, the viability, T/C [8] was 35% and the viability, T/C [9] was 19.9%. For the same molecule, the viability, T/C [10] was 8.08%, the viability, T/C [11] was 5.69% and the viability, T/C [12] was 1.86%. For the same molecule, the viability, T/C [13] was 55.8%, the viability, T/C [14] was 34.1% and the viability, T/C [15] was 20.5%. For the same molecule, the viability, T/C [16] was 10.8%, the viability, T/C [17] was 4.57% and the viability, T/C [18] was 1.97%. The viability, T/C [19] was 60.3%, the viability, T/C [20] was 35.2% and the viability, T/C [21] was 22.8%. It also gave a viability, T/C [22] of 7.04%, a viability, T/C [23] of 4.16% and a viability, T/C [24] of 1.66%. It also gave a viability, T/C [25] of 69.5%, a viability, T/C [26] of 32.4% and a viability, T/C [27] of 17.3%. It also gave a viability, T/C [28] of 8.03%, a viability, T/C [29] of 4.54% and a viability, T/C [30] of 1.99%. It also gave a viability, T/C [31] of 56.2%, a viability, T/C [32] of 30.1% and a viability, T/C [33] of 19.4%. For the same molecule, the viability, T/C [34] was 8.31%, the viability, T/C [35] was 6.93% and the viability, T/C [36] was 3.04%.
Molecule Nc1ccn(C2OC(CO)C(O)C2(F)F)c(=O)n1 (stereo unspecified) + C=CC(=O)N1CCN(c2nc(OCC3CCCN3C)nc3c(F)c(-c4nc(N)cc(C)c4C(F)(F)F)c(Cl)cc23)C(C)C1 has an IC50 (second compound 0.00316 µM) of 4.92 nM, an IC50 (second compound 0.01 µM) of 4.93 nM and an IC50 (second compound 0.0316 µM) of 5.48 nM. The IC50 (second compound 0.1 µM) was 5.32 nM, the IC50 (second compound 0.316 µM) was 5.96 nM and the IC50 (second compound 1 µM) was 5.85 nM. For the same molecule, the viability, T/C (second compound 0.00316 µM, first compound 0.00316 µM) was 57.6%, the viability, T/C (second compound 0.00316 µM, first compound 0.01 µM) was 38.4% and the viability, T/C [1] was 27.3%. It also gave a viability, T/C [2] of 28.2%, a viability, T/C [3] of 29.4% and a viability, T/C [4] of 6.7%. For the same molecule, the viability, T/C (second compound 0.01 µM, first compound 0.00316 µM) was 58.7%, the viability, T/C (second compound 0.01 µM, first compound 0.01 µM) was 36.9% and the viability, T/C [7] was 25.1%. It also gave a viability, T/C [8] of 25.1%, a viability, T/C [9] of 24.6% and a viability, T/C [10] of 21.7%. It also gave a viability, T/C (second compound 0.0316 µM, first compound 0.00316 µM) of 61.6%, a viability, T/C (second compound 0.0316 µM, first compound 0.01 µM) of 36.7% and a viability, T/C [13] of 30.1%. The viability, T/C [14] was 24%, the viability, T/C [15] was 24.1% and the viability, T/C [16] was 23.3%. It also gave a viability, T/C (second compound 0.1 µM, first compound 0.00316 µM) of 62.1%, a viability, T/C (second compound 0.1 µM, first compound 0.01 µM) of 35.4% and a viability, T/C [19] of 26.8%. It also gave a viability, T/C [20] of 26.3%, a viability, T/C [21] of 26.8% and a viability, T/C [22] of 22.7%. It also gave a viability, T/C (second compound 0.316 µM, first compound 0.00316 µM) of 74.2%, a viability, T/C (second compound 0.316 µM, first compound 0.01 µM) of 30% and a viability, T/C [25] of 29.9%. For the same molecule, the viability, T/C [26] was 25.3%, the viability, T/C [27] was 27.1% and the viability, T/C [28] was 29.1%. For the same molecule, the viability, T/C (second compound 1 µM, first compound 0.00316 µM) was 63%, the viability, T/C (second compound 1 µM, first compound 0.01 µM) was 38.3% and the viability, T/C [31] was 29%. It also gave a viability, T/C [32] of 30.1%, a viability, T/C [33] of 25.2% and a viability, T/C [34] of 21.4%.
